Data taken from US9884126B2, “Anti-wall teichoic antibodies and conjugates” (priority 2013, dated 2018).
Converted amounts (≈) assume the structure as drawn.

What was measured:
USA300 = test: Intravenous infection model, pre-treatment in Balb/c mice; type: in vivo; conditions: antibodies 50 mg/Kg IV 30 minutes prior to infection; vancomycin 110 mg/Kg twice daily; day 4
Experimental: Balb/c mice were given a single dose of vehicle control (PBS) or 50 mg/Kg of antibodies by intravenous injection 30 minutes prior to infection with 2×10^7 CFU of USA300. […] Control mice were given twice daily treatments with 110 mg/Kg of vancomycin by intraperitoneal injection (Vanco). All mice were sacrificed on day 4 post-infection, and the total number of surviving bacteria in kidneys (2 kidneys pooled) was determined by plating.
7 week old female mice were used for all in vivo experiments and infections were carried out by intravenous injection into the tail vein. A/J mice (Jackson Lab) were infected with a dose of 2×10^6 CFU. Balb/c mice (Charles River Laboratories, Hollister, Calif.) were infected with a dose of 2×10^7 CFU. For studies examining the role of competing human IgG (SCID IVIG model), CB17.SCID mice (Charles River Laboratories, Hollister, Calif.) were reconstituted with GammaGard S/D IGIV Immune Globulin (ASD Healthcare, Brooks KY) using a dosing regimen optimized to achieve constant serum levels of >10 mg/mL of human IgG. […] The total number of bacteria recovered per mouse (2 kidneys) was determined by plating serial dilutions of the tissue homogenate in PBS 0.05% Tween on Tryptic Soy Agar with 5% defibrinated sheep blood.

MRSA (USA300) = test: Intravenous infection model in CB17.SCID mice reconstituted with human IgG (SCID:huIgG); type: in vivo
Experimental: To confirm that the AAC would be effective in the presence of competing human antibodies in vivo, the in vivo infection model was modified to generate mice that express normal levels of human IgG in the serum. […] Four days after infection the bacterial load in the kidneys (FIG. 10C) was assessed.
CB17.SCID mice were reconstituted with human IgG using a dosing regimen optimized to yield constant levels of at least 10 mg/mL of human IgG in serum.
Efficacy of the AAC was compared with that of treatment with vancomycin, the current standard of care treatment for MRSA infections. […]
CB17.SCID mice were reconstituted with human IgG using a dosing regimen optimized to yield constant levels of at least 10 mg/mL of human IgG in serum and infected with 2×10^7 CFU of USA300 by intravenous injection. […] The mice were sacrificed on day 4 post infection, and the total number of surviving bacteria in kidneys (2 kidneys pooled, FIG. 21) and heart (FIG. 22) was determined by plating.
7 week old female mice were used for all in vivo experiments and infections were carried out by intravenous injection into the tail vein. […] The total number of bacteria recovered per mouse (2 kidneys) was determined by plating serial dilutions of the tissue homogenate in PBS 0.05% Tween on Tryptic Soy Agar with 5% defibrinated sheep blood.

[1] = test system: MRSA (NRS384 strain of USA300); test: MIC determination for extracellular bacteria; type: cell-based; conditions: Staphylococcus aureus, read-out: Extracellular MRSA MIC
Experimental: Dilutions of the antibiotic were made in quadruplicate in 96 well culture dishes. MRSA (NRS384 strain of USA300) was taken from an exponentially growing culture and diluted to 1×10^4 CFU/mL. Bacteria was cultured in the presence of antibiotic for 18-24 hours with shaking at 37° C. and bacterial growth was determined by reading the Optical Density (OD) at […]. The MIC was determined to be the dose of antibiotic that inhibited bacterial growth by >90%.

MRSA [2] = conditions: TSB; vancomycin 2 and 20 μg/mL, rifampin 0.02 and 0.2 μg/mL
[3] = test system: MRSA (NRS384 strain of USA300); test: MIC determination / killing of intracellular bacteria in mouse peritoneal macrophages; type: cell-based, Staphylococcus aureus
MRSA [4] = test: Transfer of infection from peritoneal cells to MG63 osteoblasts in the presence of vancomycin; type: cell-based, Staphylococcus aureus; conditions: 5 μg/mL of vancomycin
Experimental: 6-8 week old female A/J mice (JAX™ Mice, Jackson Laboratories) were infected with 1×10^8 CFU of the NRS384 strain of USA300 by peritoneal injection. The peritoneal wash was harvested 1 day post infection, and the infected peritoneal cells were treated with 50 μg/mL of lysostaphin diluted in Hepes Buffer supplemented with 0.1% BSA (HB buffer) for 30 minutes at 37° C. Peritoneal cells were then washed 2× in ice cold HB buffer. The peritoneal cells were diluted to 1×10^6 cells/mL in RPMI 1640 tissue culture media supplemented with 10 mM Hepes and 10% Fetal Calf Serum, and 5 μg/mL vancomycin. Free MRSA from the primary infection was stored overnight at 4° C. in Phosphate Buffered Saline Solution as a control for extracellular bacteria that were not subject to neutrophil killing.
MG63 osteoblast cell line was obtained from ATCC (CRL-1427) and maintained in RPMI 1640 tissue culture media supplemented with 10 mM Hepes and 10% Fetal Calf Serum (RPMI-10). […] The actual titer for all infections was determined by plating serial dilutions of the bacteria on Tryptic Soy Agar with 5% defibrinated sheep blood.
To generate a pool of intracellular S. aureus, A/J mice were infected with MRSA and infected peritoneal cells were taken 1 day post infection. […] The total number of surviving intracellular bacteria in each well was determined by plating cell lysates on agar plates. […]

CN[C@H](CC(C)C)C(=O)N[C@H]1C(=O)N[C@@H](CC(N)=O)C(=O)N[C@H]2C(=O)N[C@H]3C(=O)N[C@H](C(=O)N[C@H](C(=O)O)c4cc(O)cc(O)c4-c4cc3ccc4O)[C@H](O)c3ccc(c(Cl)c3)Oc3cc2cc(c3O[C@@H]2O[C@H](CO)[C@@H](O)[C@H](O)[C@H]2O[C@H]2C[C@](C)(N)[C@H](O)[C@H](C)O2)Oc2ccc(cc2Cl)[C@H]1O [Vancomycin]
effect of pre-treatment on bacterial loads in kidneys (USA300): cleared the infection in all of the mice tested
efficacy in SCID:huIgG mice (kidney bacteria day 4) (MRSA (USA300); AAC single dose 50 mg/Kg day 1, vancomycin 100 mg/Kg twice daily): failed to clear the infection
reduction of bacterial loads (MRSA (USA300); twice-daily 100 mg/Kg, initiated more than 1 day post infection): about 50 fold
MIC [1]: 1 µg/mL (≈ 0.69 µM)
bacteria remaining viable during the first two hours of treatment (MRSA [2]): 90%
loss in viable bacteria by 5 hours (MRSA [2]): 100 fold
MIC ([3]; Staphylococcus aureus, 24 h, MRSA inside mouse peritoneal macrophages, […]): > 100 µg/mL
killing of intracellular MRSA sequestered inside macrophages ([3]; doses including clinically achieveable serum levels): failed to kill
intracellular bacteria recovered from MG63 wells 1 day after infection (MRSA [4]; infected with 3×10^4 intracellular bacteria): 8,750 intracellular bacteria
intracellular bacteria recovered from MG63 wells 1 day post infection (MRSA [4]; infected with a similar dose of free MRSA): 375 intracellular bacteria
